The results in this text go back to patent publication US20230265151A1, “GIP/GLP1 CO-AGONIST COMPOUNDS” (priority 2020, published 2023).

Like-named read-outs stand apart in the source and are kept apart here. *1 amine or outer side, *2 acyl side, *3 side chain or, on linkers, in order; H or OH if unused. Where a SMILES comes first, the peptide text is derived from it. Side-chain parts run from the residue outwards. [ ]: non-standard residue; d: D form. The star is where a group is joined. Butanoyl(4-(4-tBuPh)) = CC(C)(C)c1ccc(CCCC(=O)*)cc1; αMePhe(2-F) = C[C@](N)(Cc1ccccc1F)C(=O)O; γGlu = O=C(O)[C@H](CCC(=O)[*:2])N[*:1]; αMeY = C[C@](N)(Cc1ccc(O)cc1)C(=O)O; 4Pal = N[C@@H](Cc1ccncc1)C(=O)O; αMeL = CC(C)C[C@](C)(N)C(=O)O; Orn = NCCC[C@H](N)C(=O)O; AEEA = NCCOCCOCC(=O)O; Aib = CC(C)(N)C(=O)O Where only a bound is given, the exact number is not on record here.

Holding throughout (assay type): cell-based
The target in one assay is T1, hGIPR (Homo sapiens, UniProt P48546).
T1 construct: expressed in transfected cells
T1 sequence (P48546 22-466): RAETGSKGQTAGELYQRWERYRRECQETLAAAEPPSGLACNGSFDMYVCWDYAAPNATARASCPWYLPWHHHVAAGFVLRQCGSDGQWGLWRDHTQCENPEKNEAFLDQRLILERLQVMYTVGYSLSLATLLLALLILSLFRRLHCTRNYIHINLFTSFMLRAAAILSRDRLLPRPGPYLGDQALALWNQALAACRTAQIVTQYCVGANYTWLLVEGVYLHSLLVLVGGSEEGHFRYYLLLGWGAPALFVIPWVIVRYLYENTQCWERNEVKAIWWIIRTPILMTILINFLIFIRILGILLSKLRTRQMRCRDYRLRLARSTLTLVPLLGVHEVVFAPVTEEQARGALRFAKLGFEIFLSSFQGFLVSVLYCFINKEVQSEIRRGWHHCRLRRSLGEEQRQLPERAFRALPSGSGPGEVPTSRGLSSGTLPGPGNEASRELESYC
The assay can be described thus: Functional cAMP formation (HTRF) in HEK-293 clonal cells expressing hGIPR, 0.1% bovine casein, without or with 1.0% human serum albumin. Conditions: for Emax: read-out: hGIPR Emax, % ± SEM; for EC50: geometric mean, read-out: hGIPR EC50, nM (SEM, n). An outline of the steps:
(§1)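 Cells were stimulated with peptide for 30 min at 37° C, then intracellular cAMP was measured by competitive HTRF (665/620 nm ratio) and converted to nM using a cAMP standard curve. Relative EC50 and Emax came from four-parameter logistic fits of percent maximal response against peptide concentration.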
A general note: cAMP levels reflect the balance of adenylyl cyclase and phosphodiesterase activity.

The target in the next assay is T2, hGCGR (Homo sapiens, UniProt P47871).
T2 construct: expressed in transfected cells
T2 sequence (P47871 26-477): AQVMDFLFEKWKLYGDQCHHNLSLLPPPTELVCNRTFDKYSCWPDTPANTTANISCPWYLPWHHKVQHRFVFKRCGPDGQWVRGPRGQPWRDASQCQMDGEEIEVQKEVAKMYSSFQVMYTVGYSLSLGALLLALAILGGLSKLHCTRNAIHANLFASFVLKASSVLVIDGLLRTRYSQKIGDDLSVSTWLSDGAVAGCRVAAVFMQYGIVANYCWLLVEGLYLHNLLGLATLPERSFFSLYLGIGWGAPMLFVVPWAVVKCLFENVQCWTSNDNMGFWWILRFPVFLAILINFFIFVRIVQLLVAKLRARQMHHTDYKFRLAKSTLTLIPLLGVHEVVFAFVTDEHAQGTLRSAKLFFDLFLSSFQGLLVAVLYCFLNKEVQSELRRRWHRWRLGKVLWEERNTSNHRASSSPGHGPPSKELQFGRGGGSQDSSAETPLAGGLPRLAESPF
Nature of the assay: Functional cAMP formation (HTRF) in HEK-293 clonal cells expressing hGCGR, 0.1% bovine casein, without or with 1.0% human serum albumin. Conditions: read-out: hGCGR EC50, nM (SEM, n). The essentials: as §1

A further assay concerns the target hGLP-1R (Homo sapiens, UniProt P43220). Nature of the assay: Functional cAMP formation (HTRF) in HEK-293 clonal cells expressing hGLP-1R, 0.1% bovine casein, without or with 1.0% human serum albumin. More on the design: expressed in transfected cells. Conditions: for EC50: read-out: hGLP-1R EC50, nM (SEM, n); for Emax: read-out: hGLP-1R Emax, % ± SEM. The essentials:
as §1

The mark [1] stands for this setting: cAMP, 37° C., 0.1% bovine casein (no human serum albumin).
Where [2] appears, read: cAMP, 37° C., 0.1% bovine casein (no human serum albumin), geometric mean.
Where [3] appears, read: cAMP, 37° C., 0.1% bovine casein and 1.0% human serum albumin, geometric mean (SEM, n).
The mark [4] stands for this setting: HEK293, 0.1% bovine casein and 1.0% human serum albumin, 37° C., percent of maximal response to GIP(1-42)NH2.
[5] abbreviates: 0.1% bovine casein and 1.0% human serum albumin, 37° C., geometric mean.
[6] abbreviates: cAMP, incubated at 37° C., 0.1% bovine casein (no human serum albumin), geometric mean.

Chain of hGLP-1R (P43220 24-463): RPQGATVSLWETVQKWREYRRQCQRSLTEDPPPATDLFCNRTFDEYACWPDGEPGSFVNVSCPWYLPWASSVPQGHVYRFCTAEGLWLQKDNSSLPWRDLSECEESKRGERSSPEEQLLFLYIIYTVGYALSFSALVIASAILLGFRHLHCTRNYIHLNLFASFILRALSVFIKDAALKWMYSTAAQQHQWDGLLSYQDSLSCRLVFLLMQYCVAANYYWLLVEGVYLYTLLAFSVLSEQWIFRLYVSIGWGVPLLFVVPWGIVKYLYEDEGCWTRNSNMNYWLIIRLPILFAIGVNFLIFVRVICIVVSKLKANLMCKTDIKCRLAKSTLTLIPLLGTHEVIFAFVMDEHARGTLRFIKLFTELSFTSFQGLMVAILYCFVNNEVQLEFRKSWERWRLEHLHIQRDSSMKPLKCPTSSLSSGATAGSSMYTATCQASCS

The Emax is the greatest response seen or fitted, relative to the assay's reference. One may read the EC50 as the concentration at which the effect is half-maximal. As for `CC[C@H](C)[C@H](NC(=O)[C@H](CC(C)C)NC(=O)[C@](C)(Cc1ccc(O)cc1)NC(=O)[C@H](CCCCNC(=O)COCCOCCNC(=O)COCCOCCNC(=O)CC[C@H](NC(=O)CCCCCCCCCCCCC(=O)O)C(=O)O)NC(=O)[C@@H](NC(=O)[C@H](Cc1ccccc1)NC(=O)[C@H](CCC(=O)O)NC(=O)C(C)(C)NC(=O)[C@H](CCC(N)=O)NC(=O)[C@H](C)NC(=O)[C@H](CCC(N)=O)NC(=O)[C@H](CCCN)NC(=O)[C@H](CC(=O)O)NC(=O)[C@H](CC(C)C)NC(=O)[C@](C)(CC(C)C)NC(=O)[C@@H](NC(=O)C(C)(C)NC(=O)[C@H](Cc1ccc(O)cc1)NC(=O)[C@H](CC(=O)O)NC(=O)[C@H](CO)NC(=O)[C@@H](NC(=O)[C@](C)(Cc1ccccc1F)NC(=O)[C@@H](NC(=O)CNC(=O)[C@H](CCC(=O)O)NC(=O)C(C)(C)NC(=O)[C@@H](N)Cc1ccc(O)cc1)[C@@H](C)O)[C@@H](C)O)[C@@H](C)CC)[C@@H](C)CC)C(=O)N[C@@H](CCCCNC(=O)COCCOCCNC(=O)COCCOCCNC(=O)CC[C@H](NC(=O)CCCCCCCCCCCCC(=O)O)C(=O)O)C(=O)NCC(=O)NCC(=O)N1CCC[C@H]1C(=O)N[C@@H](CO)C(=O)N[C@@H](CO)C(=O)NCC(=O)N[C@@H](C)C(=O)N1CCC[C@H]1C(=O)N1CCC[C@H]1C(=O)N1CCC[C@H]1C(=O)N[C@@H](CO)C(N)=O` [Example 412], the Emax on hGIPR (HEK293, cAMP, 37° C., 0.1% bovine casein and 1.0% human serum albumin, percent of maximal response to GIP(1-42)NH2) was 87.5%; on hGIPR (HEK293, cAMP, 37° C., 0.1% bovine casein, percent of maximal response to GIP(1-42)NH2, arithmetic mean), 95.4%. Besides, the EC50 at hGIPR (setting [1]) is 0.0108 nM; on hGCGR (setting [2]), more than 9950 nM; at hGCGR (setting [3]), more than 9950 nM; on hGLP-1R (setting [2]), 0.16 nM; on hGLP-1R (setting [3]) it was 18.3 nM.

Regarding `CC[C@H](C)[C@H](NC(=O)[C@H](CCCN)NC(=O)[C@H](CC(=O)O)NC(=O)[C@H](CC(C)C)NC(=O)[C@](C)(CC(C)C)NC(=O)[C@@H](NC(=O)[C@H](CO)NC(=O)[C@H](Cc1ccncc1)NC(=O)[C@H](CC(=O)O)NC(=O)[C@H](CO)NC(=O)[C@@H](NC(=O)[C@](C)(Cc1ccccc1F)NC(=O)[C@@H](NC(=O)CNC(=O)[C@H](CCC(=O)O)NC(=O)C(C)(C)NC(=O)[C@@H](N)Cc1ccc(O)cc1)[C@@H](C)O)[C@@H](C)O)[C@@H](C)CC)C(=O)N[C@@H](C)C(=O)N[C@@H](CCC(N)=O)C(=O)NC(C)(C)C(=O)N[C@@H](CCC(=O)O)C(=O)N[C@@H](Cc1ccccc1)C(=O)N[C@H](C(=O)N[C@H](CCC(=O)O)C(=O)N[C@@](C)(Cc1ccc(O)cc1)C(=O)N[C@@H](CC(C)C)C(=O)N[C@H](C(=O)N[C@@H](CCCCNC(=O)COCCOCCNC(=O)COCCOCCNC(=O)CC[C@H](NC(=O)CCCc1ccc(C(C)(C)C)cc1)C(=O)O)C(=O)NCC(=O)NCC(=O)N1CCC[C@H]1C(=O)N[C@@H](CO)C(=O)N[C@@H](CO)C(=O)NCC(=O)N[C@@H](C)C(=O)N1CCC[C@H]1C(=O)N1CCC[C@H]1C(=O)N1CCC[C@H]1C(=O)N[C@@H](CO)C(=O)N[C@@H](CCCCNC(=O)COCCOCCNC(=O)COCCOCCNC(=O)CC[C@H](NC(=O)CCCc1ccc(C(C)(C)C)cc1)C(=O)O)C(N)=O)[C@@H](C)CC)[C@@H](C)CC` [Example 206] (H-Y[Aib]EGT[αMePhe(2-F)]TSD[4Pal]SI[αMeL]LD[Orn]IAQ[Aib]EFI[dE][αMeY]LIK([AEEA-AEEA-γGlu-Butanoyl(4-(4-tBuPh))])GGPSSGAPPPSK([AEEA-AEEA-γGlu-Butanoyl(4-(4-tBuPh))])-NH2), the EC50 on hGIPR (0.1% bovine casein and 1.0% human serum albumin, 37° C.) is 0.242 nM; on hGIPR (cAMP, incubated at 37° C., 0.1% bovine casein (no human serum albumin)), 0.0204 nM; at hGCGR (setting [5]) it was more than 9950 nM; on hGCGR (setting [6]) it was more than 9950 nM; at hGLP-1R (setting [5]) it was 3.03 nM; at hGLP-1R (setting [6]), 0.299 nM. Also, the Emax came out at 77.6% at hGIPR (setting [4]); 96.4% on hGIPR (HEK293, percent of maximal response to GIP(1-42)NH2, 37° C., 0.1% bovine casein, arithmetic mean); 98.1% on hGLP-1R (HEK293, 0.1% bovine casein and 1.0% human serum albumin, 37° C., percent of maximal response to GLP-1(7-36)NH2); 100% at hGLP-1R (HEK293, percent of maximal response to GLP-1(7-36)NH2, 37° C., 0.1% bovine casein, arithmetic mean).

In the case of `CC[C@H](C)[C@H](NC(=O)[C@H](CC(C)C)NC(=O)[C@](C)(Cc1ccc(O)cc1)NC(=O)[C@@H](CCC(=O)O)NC(=O)[C@@H](NC(=O)[C@H](Cc1ccccc1)NC(=O)[C@H](CCC(=O)O)NC(=O)C(C)(C)NC(=O)[C@H](CCC(N)=O)NC(=O)[C@H](C)NC(=O)[C@H](CCCCNC(=O)COCCOCCNC(=O)COCCOCCNC(=O)CC[C@H](NC(=O)CCCCCCCCCCCCC(=O)O)C(=O)O)NC(=O)[C@H](CCCN)NC(=O)[C@H](CC(=O)O)NC(=O)[C@H](CC(C)C)NC(=O)[C@](C)(CC(C)C)NC(=O)[C@@H](NC(=O)[C@H](CO)NC(=O)[C@H](Cc1ccc2ccccc2c1)NC(=O)[C@H](CC(=O)O)NC(=O)[C@H](CO)NC(=O)[C@@H](NC(=O)[C@](C)(Cc1ccccc1F)NC(=O)[C@@H](NC(=O)CNC(=O)[C@H](CCC(=O)O)NC(=O)C(C)(C)NC(=O)[C@@H](N)Cc1ccc(O)cc1)[C@@H](C)O)[C@@H](C)O)[C@@H](C)CC)[C@@H](C)CC)C(=O)N[C@@H](CCC(=O)O)C(=O)NCC(=O)NCC(=O)N1CCC[C@H]1C(=O)N[C@@H](CO)C(=O)N[C@@H](CO)C(=O)NCC(=O)N[C@@H](C)C(=O)N1CCC[C@H]1C(=O)N1CCC[C@H]1C(=O)N1CCC[C@H]1C(=O)N[C@@H](CO)C(=O)N[C@@H](CCCCNC(=O)COCCOCCNC(=O)COCCOCCNC(=O)CC[C@H](NC(=O)CCCCCCCCCCCCC(=O)O)C(=O)O)C(N)=O` [Example 251], the Emax is 71.2% on hGIPR (setting [4]) and 99% on hGLP-1R (HEK293, cAMP, 37° C., 0.1% bovine casein, percent of maximal response to GLP-1(7-36)NH2, arithmetic mean). The EC50 at hGIPR (setting [1]) is 0.0305 nM; at hGCGR (setting [5]) it was more than 9950 nM; on hGCGR (setting [2]), more than 9950 nM; on hGLP-1R (setting [2]), 0.338 nM.
